Assay results as given in ChEMBL document CHEMBL1201862, “PubChem BioAssay data set” (2004).
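In this assay, cells in 96-well plates receive the compound at five concentrations for 48 hours. Endpoints are linearly interpolated between the surrounding concentrations. The concentration for 50% growth inhibition is given as GI50.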 Active and inactive are the calls of the source. Cut-off read from the data, not from the text of the source: active = GI50 up to about 1.1 µM and inactive = higher.

How the values were obtained:
Test in all cases: growth of human tumour cells (NCI), 48 h
BT-549 = tested on: BT-549
SK-MEL-5 = tested on: SK-MEL-5
CAKI-1 = tested on: CAKI-1
TK-10 = tested on: TK-10
HOP-62 = tested on: HOP-62
Malme-3M = tested on: Malme-3M
MDA-N = tested on: MDA-N
MDA-MB-435 = tested on: MDA-MB-435
NCI-H522 = tested on: NCI-H522
A549 = tested on: A549
SNB-19 = tested on: SNB-19
PC-3 = tested on: PC-3
786-0 = tested on: 786-0
CCRF-CEM = tested on: CCRF-CEM
KM12 = tested on: KM12
MOLT-4 = tested on: MOLT-4
EKVX = tested on: EKVX
Hs-578T = tested on: Hs-578T
MDA-MB-231 = tested on: MDA-MB-231
HCC 2998 = tested on: HCC 2998

Measured: GI50

NC1(P(=O)(O)O)CCCCC1
inactive: BT-549 > 100 µM | SK-MEL-5 > 100 µM | CAKI-1 > 100 µM | TK-10 > 100 µM | HOP-62 > 100 µM | Malme-3M > 100 µM | MDA-N > 100 µM | MDA-MB-435 > 100 µM | NCI-H522 > 100 µM | A549 > 100 µM | SNB-19 > 100 µM | PC-3 > 100 µM | 786-0 > 100 µM | CCRF-CEM > 100 µM | KM12 > 100 µM | MOLT-4 > 100 µM | EKVX > 100 µM | Hs-578T > 100 µM | MDA-MB-231 > 100 µM

N=c1oc2ccc([N+](=O)[O-])cc2cc1C(=O)Nc1ccccn1
inactive: BT-549 48.4 µM | SK-MEL-5 93.5 µM | CAKI-1 > 100 µM | HOP-62 25.3 µM | Malme-3M 21.7 µM | MDA-N 49.2 µM | MDA-MB-435 37.6 µM | NCI-H522 24.5 µM | A549 > 100 µM | SNB-19 33.9 µM | PC-3 12.9 µM | 786-0 19.2 µM | CCRF-CEM 31.5 µM | KM12 34.3 µM | HCC 2998 91.4 µM | MOLT-4 > 100 µM | EKVX 34.6 µM | Hs-578T 29.1 µM | MDA-MB-231 21.6 µM

O=[N+]([O-])C1(C2([N+](=O)[O-])CCCC2)CCCC1
inactive: BT-549 > 100 µM | SK-MEL-5 > 100 µM | CAKI-1 > 100 µM | TK-10 > 100 µM | Malme-3M > 100 µM | MDA-N > 100 µM | MDA-MB-435 > 100 µM | NCI-H522 50.7 µM | A549 > 100 µM | SNB-19 > 100 µM | PC-3 > 100 µM | 786-0 > 100 µM | CCRF-CEM > 100 µM | KM12 > 100 µM | HCC 2998 > 100 µM | MOLT-4 > 100 µM | EKVX > 100 µM | Hs-578T > 100 µM | MDA-MB-231 > 100 µM

Cc1cn(C2CC(O)C(COC(N)=O)O2)c(=O)[nH]c1=O (configuration not stated)
inactive: BT-549 > 100 µM | SK-MEL-5 > 100 µM | CAKI-1 > 100 µM | TK-10 > 100 µM | HOP-62 > 100 µM | Malme-3M > 100 µM | MDA-N > 100 µM | MDA-MB-435 > 100 µM | NCI-H522 > 100 µM | A549 > 100 µM | SNB-19 > 100 µM | PC-3 > 100 µM | 786-0 > 100 µM | CCRF-CEM > 100 µM | KM12 > 100 µM | MOLT-4 > 100 µM | EKVX > 100 µM | Hs-578T > 100 µM | MDA-MB-231 > 100 µM

CC12CCC(C(=O)O1)C(C)(C)O2 (configuration not stated)
inactive: BT-549 > 100 µM | CAKI-1 > 100 µM | TK-10 > 100 µM | HOP-62 > 100 µM | Malme-3M > 100 µM | MDA-N > 100 µM | MDA-MB-435 > 100 µM | NCI-H522 > 100 µM | A549 > 100 µM | SNB-19 > 100 µM | PC-3 > 100 µM | 786-0 > 100 µM | CCRF-CEM > 100 µM | KM12 > 100 µM | HCC 2998 > 100 µM | MOLT-4 > 100 µM | EKVX > 100 µM | Hs-578T > 100 µM | MDA-MB-231 > 100 µM

COc1c(C(C)(C)C)cc(CC2C(=O)C=CC2=O)cc1C(C)(C)C
inactive: BT-549 23.8 µM | SK-MEL-5 17.3 µM | CAKI-1 15.3 µM | TK-10 5.92 µM | HOP-62 18.4 µM | Malme-3M 17.2 µM | MDA-N 15.2 µM | MDA-MB-435 15.3 µM | NCI-H522 2.25 µM | A549 24.3 µM | SNB-19 19.1 µM | PC-3 15.8 µM | 786-0 2.86 µM | CCRF-CEM 2.29 µM | KM12 17.4 µM | MOLT-4 2.93 µM | EKVX 17.7 µM | Hs-578T 27 µM | MDA-MB-231 18.2 µM

Cc1c(F)c(N)c2c(=O)cc(-c3ccc(NC(=O)CN(C)C)c(F)c3)oc2c1F
inactive: BT-549 > 100 µM | SK-MEL-5 53.5 µM | CAKI-1 2.45 µM | TK-10 18.5 µM | Malme-3M > 100 µM | MDA-N > 100 µM | MDA-MB-435 48.2 µM | NCI-H522 55.1 µM | A549 89.7 µM | SNB-19 54.1 µM | PC-3 38.3 µM | 786-0 39.5 µM | CCRF-CEM 21 µM | KM12 32 µM | HCC 2998 21.5 µM | MOLT-4 15.5 µM | Hs-578T > 100 µM | MDA-MB-231 27.8 µM
